Assay results reported in US20230391725A1, “MODULATORS OF THE INTEGRATED STRESS RESPONSE PATHWAY” (Evotec International GmbH, priority 2020, published 2023).
pIC50: −log10 of the molar value. Where a name gives a salt, the structure may show the parent alone.

Test system: ATF4
Assay: HEK-ATF4 High Content Imaging assay (prevention of Tunicamycin induced ISR)
Type: cell-based
Settings: Homo sapiens, Wild-type HEK293 cells, 6 h incubation, ATF4 signal ratio between nucleus and cytoplasm
Experimental: Example compounds were tested in the HEK-ATF4 High Content Imaging assay to assess their pharmacological potency to prevent Tunicamycin induced ISR. Wild-type HEK293 cells were plated in 384-well imaging assay plates at a density of 12,000 cells per well in growth medium (containing DMEM/F12, 10% FBS, 2 mM L-Glutamine, 100 U/mL Penicillin—100 μg/mL Streptomycin) and incubated at 37° C., 5% CO2. 24 h later, the medium was changed to 50 μL assay medium per well (DMEM/F12, 0.3% FBS, 2mM L-Glutamine, 100 U/mL Penicillin—100 μg/mL Streptomycin). Example compounds were serially diluted in DMSO, spotted into intermediate plates and prediluted with assay medium containing 3.3 […] Tunicamycin to give an 11-fold excess of final assay concentration. In addition to the example compound testing area, the plates also contained multiples of control wells for assay normalization purposes, wells containing Tunicamycin but no example compounds (High control), as well as wells containing neither example compound nor Tunicamycin (Low control). The assay was started by transferring 5 μL from the intermediate plate into the assay plates, followed by incubation for 6 h at 37° C., 5% CO2. Subsequently, cells were fixed (4% PFA in PBS, 20 min at r.t.) and submitted to indirect ATF4 immunofluorescence staining (primary antibody rabbit anti ATF4, clone D4B8, Cell Signaling Technologies; secondary antibody Alexa Fluor 488 goat anti-rabbit IgG (H+L), Thermofisher Scientific). Nuclei were stained using Hoechst dye (Thermofisher Scientific), and plates were imaged on an Opera Phenix High Content imaging platform equipped with 405 nm and 488 nm excitation. Finally, images were analyzed using script based algorithms. The main readout HEK-ATF4 monitored the ATF4 signal ratio between nucleus and cytoplasm. Tunicamycin induced an increase in the overall ATF4 ratio signal, which was prevented by ISR modulating example compounds. In addition, HEK-CellCount readout was derived from counting the number of stained nuclei corresponding to healthy cells. This readout served as an internal toxicity control.

Row | Structure (SMILES) | pIC50
1 | O=C(COc1ccc(Cl)c(F)c1)N[C@H]1CC[C@H](C(=O)NCc2ccc(C(F)(F)F)cc2)NC1 [Example 4, (2R,5S)-5-[2-(4-chloro-3-fluorophenoxy)acetamido]-N-{[4-(trifluoromethyl)phenyl]methyl}piperidine-2-carboxamide] | 6.30 to 9.00
2 | O=C(COc1ccc(Cl)c(F)c1)N[C@H]1CC[C@H](C(=O)Nc2ccc(Cl)cc2)NC1 [Example 8, (2R,5S)-5-[2-(4-chloro-3-fluorophenoxy)acetamido]-N-(4-chlorophenyl)piperidine-2-carboxamide] | 6.30 to 9.00
3 | O=C(COc1ccc(Cl)c(F)c1)N[C@@H]1CC[C@@H](C(=O)Nc2ccc(Cl)cc2)NC1 [Example 9, (2S,5R)-5-[2-(4-chloro-3-fluorophenoxy)acetamido]-N-(4-chlorophenyl)piperidine-2-carboxamide] | 4.82 to 5.70
4 | O=C(COc1ccc(Cl)c(F)c1)N[C@H]1CC[C@H](C(=O)Nc2ccccc2)NC1 [Example 10, (2R,5S)-5-[2-(4-chloro-3-fluorophenoxy)acetamido]-N-phenylpiperidine-2-carboxamide] | 4.82 to 5.70
5 | O=C(COc1ccc(Cl)c(F)c1)N[C@H]1CC[C@H](C(=O)Nc2cccc(Cl)c2)NC1 [Example 11, (2R,5S)-5-[2-(4-chloro-3-fluorophenoxy)acetamido]-N-(3-chlorophenyl)piperidine-2-carboxamide] | 6.30 to 9.00
6 | O=C(COc1ccc(Cl)c(F)c1)N[C@H]1CC[C@H](C(=O)NCc2ccc(Cl)cn2)NC1 [Example 14, (2R,5S)-5-[2-(4-chloro-3-fluorophenoxy)acetamido]-N-[(5-chloropyridin-2-yl)methyl]piperidine-2-carboxamide] | 4.82 to 5.70
7 | COc1cc(Cl)ccc1NC(=O)[C@H]1CC[C@H](NC(=O)COc2ccc(Cl)c(F)c2)CN1 [Example 16, (2R,5S)-N-(4-chloro-2-methoxyphenyl)-5-[2-(4-chloro-3-fluorophenoxy)acetamido]piperidine-2-carboxamide] | 4.82 to 5.70
8 | COc1cccc(NC(=O)[C@H]2CC[C@H](NC(=O)COc3ccc(Cl)c(F)c3)CN2)c1 [Example 20, (2R,5S)-5-[2-(4-chloro-3-fluorophenoxy)acetamido]-N-(3-methoxyphenyl)piperidine-2-carboxamide] | 4.82 to 5.70
9 | O=C(COc1ccc(Cl)c(F)c1)N[C@H]1CC[C@H](C(=O)Nc2cccc(F)c2)NC1 [Example 23, (2R,5S)-5-[2-(4-chloro-3-fluorophenoxy)acetamido]-N-(3-fluorophenyl)piperidine-2-carboxamide] | 5.70 to 6.30
10 | O=C(COc1ccc(Cl)c(F)c1)N[C@H]1CC[C@H](C(=O)Nc2cccc(C(F)F)c2)NC1 [Example 24, (2R,5S)-5-[2-(4-chloro-3-fluorophenoxy)acetamido]-N-[3-(difluoromethyl)phenyl]piperidine-2-carboxamide] | 6.30 to 9.00
11 | O=C(COc1ccc(Cl)c(F)c1)N[C@H]1CC[C@H](C(=O)Nc2ccc(Cl)cn2)NC1 [Example 25, (2R,5S)-5-[2-(4-chloro-3-fluorophenoxy)acetamido]-N-(5-chloropyridin-2-yl)piperidine-2-carboxamide] | 5.70 to 6.30
12 | Cc1cc(C)cc(NC(=O)[C@H]2CC[C@H](NC(=O)COc3ccc(Cl)c(F)c3)CN2)c1 [Example 28, (2R,5S)-5-[2-(4-chloro-3-fluorophenoxy)acetamido]-N-(3,5-dimethylphenyl)piperidine-2-carboxamide] | 4.82 to 5.70
13 | O=C(COc1ccc(Cl)c(F)c1)N[C@H]1CC[C@H](C(=O)Nc2cccc(OC(F)F)c2)NC1 [Example 30, (2R,5S)-5-[2-(4-chloro-3-fluorophenoxy)acetamido]-N-[3-(difluoromethoxy)phenyl]piperidine-2-carboxamide] | 5.70 to 6.30

Results, then the compound that gave them:

Row | pIC50 | Structure (SMILES)
14 | 6.30 to 9.00 | O=C(COc1ccc(Cl)c(F)c1)N[C@H]1CC[C@H](C(=O)N[C@H]2CC[C@H](OC(F)(F)F)C2)NC1 (single isomer, unassigned) [Example 53]
15 | 5.70 to 6.30 | O=C(COc1ccc(Cl)c(F)c1)N[C@H]1CC[C@H](C(=O)N[C@@H]2CC[C@@H](OC(F)(F)F)C2)NC1 (single isomer, unassigned) [Example 54]
16 | 4.82 to 5.70 | O=C(COc1ccc(Cl)c(F)c1)N[C@H]1CC[C@H](C(=O)NCCCOC(F)(F)F)NC1 [Example 2, (2R,5S)-5-[2-(4-chloro-3-fluorophenoxy)acetamido]-N-[3-(trifluoromethoxy)propyl]piperidine-2-carboxamide hydrochloride]
17 | 4.82 to 5.70 | O=C(COc1ccc(Cl)c(F)c1)N[C@H]1CC[C@H](C(=O)N2CC(OCCOC(F)(F)F)C2)NC1 [Example 5, 2-(4-chloro-3-fluorophenoxy)-N-[(3S,6R)-6-{3-[2-(trifluoromethoxy)ethoxy]azetidine-1-carbonyl}piperidin-3-yl]acetamide]
18 | 4.82 to 5.70 | O=C(COc1ccc(Cl)c(F)c1)N[C@H]1CC[C@H](C(=O)NOCCOC(F)(F)F)NC1 [Example 6, (2R,5S)-5-[2-(4-chloro-3-fluorophenoxy)acetamido]-N-[2-(trifluoromethoxy)ethoxy]piperidine-2-carboxamide]
19 | 6.30 to 9.00 | O=C(COc1ccc(Cl)c(F)c1)N[C@H]1CC[C@H](C(=O)Nc2cccc(C(F)(F)F)c2)NC1 [Example 12, (2R,5S)-5-[2-(4-chloro-3-fluorophenoxy)acetamido]-N-[3-(trifluoromethyl)phenyl]piperidine-2-carboxamide]
20 | 6.30 to 9.00 | O=C(COc1ccc(Cl)c(F)c1)N[C@H]1CC[C@H](C(=O)Nc2cccc(OC(F)(F)F)c2)NC1 [Example 13, (2R,5S)-5-[2-(4-chloro-3-fluorophenoxy)acetamido]-N-[3-(trifluoromethoxy)phenyl]piperidine-2-carboxamide]
21 | 4.82 to 5.70 | O=C(COc1ccc(Cl)c(F)c1)N[C@H]1CC[C@H](C(=O)N[C@H]2CC[C@@H](OC(F)(F)F)CC2)NC1 [Example 15, (2R,5S)-5-[2-(4-chloro-3-fluorophenoxy)acetamido]-N-[(1s,4s)-4-(trifluoromethoxy)cyclohexyl]piperidine-2-carboxamide]
22 | 4.82 to 5.70 | O=C(COc1ccc(Cl)c(F)c1)N[C@H]1CC[C@H](C(=O)NCc2ccc(C(F)(F)F)o2)NC1 [Example 17, (2R,5S)-5-[2-(4-chloro-3-fluorophenoxy)acetamido]-N-{[5-(trifluoromethyl)furan-2-yl]methyl}piperidine-2-carboxamide]
23 | 6.30 to 9.00 | O=C(COc1ccc(Cl)c(F)c1)N[C@H]1CC[C@H](C(=O)NCc2cc(C(F)(F)F)co2)NC1 [Example 18, (2R,5S)-5-[2-(4-chloro-3-fluorophenoxy)acetamido]-N-{[4-(trifluoromethyl)furan-2-yl]methyl}piperidine-2-carboxamide]
24 | 4.82 to 5.70 | O=C(COc1ccc(Cl)c(F)c1)N[C@H]1CC[C@H](C(=O)NC[C@H]2CC[C@@H](C(F)(F)F)CC2)NC1 [Example 19, (2R,5S)-5-[2-(4-chloro-3-fluorophenoxy)acetamido]-N-{[(1s,4s)-4-(trifluoromethyl)cyclohexyl]methyl}piperidine-2-carboxamide]
25 | 6.30 to 9.00 | O=C(COc1ccc(Cl)c(F)c1)N[C@H]1CC[C@H](C(=O)Nc2ccc(F)c(C(F)(F)F)c2)NC1 [Example 21, (2R,5S)-5-[2-(4-chloro-3-fluorophenoxy)acetamido]-N-[4-fluoro-3-(trifluoromethyl)phenyl]piperidine-2-carboxamide]
26 | 6.30 to 9.00 | O=C(COc1ccc(Cl)c(F)c1)N[C@H]1CC[C@H](C(=O)Nc2cncc(C(F)(F)F)c2)NC1 [Example 22, (2R,5S)-5-[2-(4-chloro-3-fluorophenoxy)acetamido]-N-[5-(trifluoromethyl)pyridin-3-yl]piperidine-2-carboxamide]
27 | 4.82 to 5.70 | Cc1c(NC(=O)[C@H]2CC[C@H](NC(=O)COc3ccc(Cl)c(F)c3)CN2)cnn1CC(F)(F)F [Example 26, (2R,5S)-5-[2-(4-chloro-3-fluorophenoxy)acetamido]-N-[5-methyl-1-(2,2,2-trifluoroethyl)-1H-pyrazol-4-yl]piperidine-2-carboxamide]
28 | 5.70 to 6.30 | O=C(COc1ccc(Cl)c(F)c1)N[C@H]1CC[C@H](C(=O)N[C@H]2C[C@@H](OC(F)(F)F)C2)NC1 [Example 27, (2R,5S)-5-[2-(4-chloro-3-fluorophenoxy)acetamido]-N-[(1s,3s)-3-(trifluoromethoxy)cyclobutyl]piperidine-2-carboxamide]
29 | 4.82 to 5.70 | O=C(COc1ccc(Cl)c(F)c1)N[C@H]1CC[C@H](C(=O)NCCCCC(F)(F)F)NC1 [Example 29, (2R,5S)-5-[2-(4-chloro-3-fluorophenoxy)acetamido]-N-(5,5,5-trifluoropentyl)piperidine-2-carboxamide]
30 | 6.30 to 9.00 | O=C(COc1ccc(Cl)c(F)c1)N[C@@H]1CC[C@@H](C(=O)Nc2cccc(C(F)(F)F)c2)NC1 [Example 31, (2S,5R)-5-[2-(4-chloro-3-fluorophenoxy)acetamido]-N-[3-(trifluoromethyl)phenyl]piperidine-2-carboxamide]
